Like-named read-outs stand apart in the source and are kept apart here.
What was measured:
[1] = test system: pancreatic ductal adenocarcinoma No. 03 (Panc 03); assay: In vivo antitumor assay, Panc03; parameters: species or system murine tumor in mice
Excerpt: (§1) In vivo Antitumor Assay Procedure
(§2) Mice: Inbred: C3H/He and NCR-nu; and Hybrids: B6D2F1 (C57BL/6 females×DBA/2 males, CD2F1 (Balb/c females×DBS/2 males) and B6C3fl (C57BL/6×C3H) were bred at Wayne State University from strains obtained from the Frederick Cancer Research Facility, Frederick, Md. or purchased from commercial suppliers.
Tumors: Murine Tumor: P388 leukemia and pancreatic ductal adenocarcinoma No. 03 (Panc 03) were used for in vivo testing. Human tumor: A single human tumor, mammary carcinoma MX-1 (MX1) was used for in vivo testing. All tumors are in the Developmental Therapeutics Program frozen tumor respository, maintained by the Biological Testing Branch, Frederick, Md. Each has a detailed description, code identification number, and list of references at the National Tumor Repository. Murine tumors were maintained in the mouse strain of origin and were transplanted in the appropriate F1 hydrid (or the strain of orgin) for therapy trials. Human mammary carcinoma MX-1 (MX1) was maintained as a subcutaneous implant in either athymic Swiss (Cr: NIH (S) - nu) or athymic random bred (NCR-nu) mice and transplanted in NCR-nu for therapy trials.
Chemotherapy: For pancreatic ductal adenocarcinoma No. 3, bilateral tumor implants were used to help ensure a more uniform tumor burden per mouse. The animals necessary to begin an experiment were pooled, implanted bilaterally s.c. on day zero with 30-60-mg tumor fragments using a 12-gauge trocar, and again pooled before randomization to the various treatment and control groups. Chemotherapy was started within three days after tumor implantation while the number of cells per mouse was relatively small (1×10^7 -1×10^8 cells).
End Points for Assessing Antitumor Activity
(§3) Quantitative end points used to assess antitumor activity were percent Increased Life Span (% ILS), and Tumor Growth Inhibition (T/C).
(§4) Endpoints were calculated as follows: […]
Tumors were measured with a caliper once or twice weekly (as needed) until either tumors exceeded 1600 mg or cure was assured. Tumor weights were estimated from two dimensional measurements: Tumor Weight (mg)+(a×b^2)/2, where a and b are the tumor length and width (mm) respectively. Measurements were carried out simultaneously in both treatment and control groups. When the control group tumors reached approximately 750-1500 mg in size (median of group), the median tumor weight of each group was determined (including zeros). The T/C value in percent is an indication of antitumor effectiveness. The % T/C was calculated from the following formula for solid murine tumor models: [formula] where T and C are median tumor weights of the treatment and control groups, respectively. A T/C equal to or less than 42% is considered significant antitumor activity. A T/C value<10% is indicative of a high degree of antitumor activity and is the level used by National Cancer Institute to justify further development if other requirements are met (termed DN-2 level activity). By convention the T/C value for the mammary carcinoma MX-1 model is calculated by the parameter of change in tumor weight. The % T/C was calculated from the following formula for the MX-1 model; [formula] where ΔT and ΔC are the change in mean tumor weight of the test and control groups, respectively, and T (initial) is the initial mean tumor weight of the test group. […] A % T/C≤10 is considered significant activity.

human topoisomerase II = target: T1, human topoisomerase II (Homo sapiens, UniProt P11388); assay: Mammalian Topoisomerase II Inhibition Assay (stabilization of DNA-topo II covalent complex); type: biochemical
T1 construct: Topo II was purified from late log phase suspension cultures of HeLa WIS; endogenous in cells; host or cells: HeLa WIS (late log phase suspension cultures); enzyme purified from the cells
Excerpt: Mammalian Topoisomerase II Inhibition Assay Procedure
The inhibition of human topoisomerase II (hereafter topo II) was quantitated by a procedure adapted from that described by Trask et al., EMBO J., 3, 671-676 (1984). The assay quantitates the amount of topo II covalently complexed by DNA at equilibrium during a topo II reaction. This assay determines the potential of a compound to stabilize this complex, which potential is closely related to the cytotoxicity of several clinically useful antineoplastic agents.
Topo II was purified from late log phase suspension cultures of HeLa WIS by an adaptation of the method described by Per et al., Mol. Pharmacol., 32, 17-25 (1987).
Assays (in duplicate) were assembled at 4° C. Assay mix (25 μl ) was distributed in Beckman (No. 265270) 1.5 mL microtitre tubes followed by the addition of 5 μl test to yield the final concentrations of assay components:
4 ng 3' end labeled (^32 p) pBR322 DNA (10^7 DPM/μg)
The assay mix including the test compound was incubated for 20 minutes at 37° C. The reaction was terminated at 37° C. by the addition of 3 μl 10% SDS followed by the addition of 266 μl 10 mM Tris-Cl pH 7.5, 20 μg/ml calf thymus DNA, 1% SDS.
A SDS/protein precipitate was formed by the addition of 28 μl 2.5M KCl followed by chilling on ice for a minimum of 10 minutes. The precipitate was collected and washed with a Brandell cell harvester on a GFB glass fiber filter membrane as follows. The contents of the assay tube were drawn up into the harvester. The tube was then rinsed 7× with 10 mM Tris-Cl pH 7.5, 1 mM EDTA and 100 mM KCl. The precipitate was washed with 1 L of a solution of 10 mM Tris-Cl pH 7.5, 1 mMEDTA, 100 mM KCl followed by 1 L of 95% ethyl alcohol and finally 0.5 L 70% of ethyl alcohol (per 48 samples in each case). After drying, CPM was determined by liquid scintillation counting with 5 ml Biofluor (NEN Research Products) or Readisafe (Beckman Instruments Inc.) cocktail.
Preparation of test compound--A stock solution (6 mg/ml) of test compound was prepared either in 0.1N sodium hydroxide or 0.2N hydrogen chloride. This solution then was diluted 1/5 into water and serially thereafter in either 0.02N sodium hydroxide or 0.04N hydrogen chloride, respectively. The stock solution and serial dilution of the test compound was stored at -20° C. prior to testing.
Screening of test compound--As an initial screen, the test compound was tested at a final concentration of 2, 20 and 200 μg/ml. The compound was then retested at a range of concentrations (usually 2-3× steps) bridging their approximate EC50 's, as estimated by the prescreen.
Controls--A solvent control which indicates the base level of topo II-DNA complexes formed in the absence of the test compound was included in each test. A control, in which topo II was omitted, was included for each test compound at the highest drug concentration tested.
Reference Agent--A dose response curve with mAMSA at 0.01, 0.08, 0.16, 0.32, 1.0 and 10 μg/ml was included in each test.
Data reduction--The EC50 (effective concentration at which 50% of the maximal DNA-topo II complex is formed) of a test compound is defined to be the concentration with activity equal to the EC50 of the reference agent, mAMSA. The maximal DNA-topo II complex formed is taken as that equal to that formed at the nearly saturating dose of mAMSA (10 μg/ml).
The results obtained for representative compounds of the invention in the human topoisomerase II assay procedure expressed as EC50 s (μM) are presented in Table 3.

P388 leukemia = assay: In vivo antitumor assay, P388 leukemia; parameters: species or system murine tumor in mice
Excerpt: as §1, §2
Tumors: Murine Tumor: P388 leukemia and pancreatic ductal adenocarcinoma No. 03 (Panc 03) were used for in vivo testing. Human tumor: A single human tumor, mammary carcinoma MX-1 (MX1) was used for in vivo testing. All tumors are in the Developmental Therapeutics Program frozen tumor respository, maintained by the Biological Testing Branch, Frederick, Md. Each has a detailed description, code identification number, and list of references at the National Tumor Repository. Murine tumors were maintained in the mouse strain of origin and were transplanted in the appropriate F1 hydrid (or the strain of orgin) for therapy trials. Human mammary carcinoma MX-1 (MX1) was maintained as a subcutaneous implant in either athymic Swiss (Cr: NIH (S) - nu) or athymic random bred (NCR-nu) mice and transplanted in NCR-nu for therapy trials. […]
as §3, §4

[2] = test system: mammary carcinoma MX-1 (MX1); assay: In vivo antitumor assay, mammary carcinoma MX-1; parameters: species or system human tumor in NCR-nu mice; settings: MX-1, sc tumor/ip drug
Excerpt: as §1, §2
Tumors: Murine Tumor: P388 leukemia and pancreatic ductal adenocarcinoma No. 03 (Panc 03) were used for in vivo testing. Human tumor: A single human tumor, mammary carcinoma MX-1 (MX1) was used for in vivo testing. All tumors are in the Developmental Therapeutics Program frozen tumor respository, maintained by the Biological Testing Branch, Frederick, Md. […]
as §3, §4
Tumors were measured with a caliper once or twice weekly (as needed) until either tumors exceeded 1600 mg or cure was assured. […] When the control group tumors reached approximately 750-1500 mg in size (median of group), the median tumor weight of each group was determined (including zeros). […] The % T/C was calculated from the following formula for solid murine tumor models: [formula] where T and C are median tumor weights of the treatment and control groups, respectively. […]

[3] = concentration with activity equal to EC50 of mAMSA, 20 min, 37° C, read-out: Topo II EC50
[4] = footnote *: bell shaped dose response, read-out: Topo II EC50 (bell shaped dose response)

T1 sequence (P11388 whole entry): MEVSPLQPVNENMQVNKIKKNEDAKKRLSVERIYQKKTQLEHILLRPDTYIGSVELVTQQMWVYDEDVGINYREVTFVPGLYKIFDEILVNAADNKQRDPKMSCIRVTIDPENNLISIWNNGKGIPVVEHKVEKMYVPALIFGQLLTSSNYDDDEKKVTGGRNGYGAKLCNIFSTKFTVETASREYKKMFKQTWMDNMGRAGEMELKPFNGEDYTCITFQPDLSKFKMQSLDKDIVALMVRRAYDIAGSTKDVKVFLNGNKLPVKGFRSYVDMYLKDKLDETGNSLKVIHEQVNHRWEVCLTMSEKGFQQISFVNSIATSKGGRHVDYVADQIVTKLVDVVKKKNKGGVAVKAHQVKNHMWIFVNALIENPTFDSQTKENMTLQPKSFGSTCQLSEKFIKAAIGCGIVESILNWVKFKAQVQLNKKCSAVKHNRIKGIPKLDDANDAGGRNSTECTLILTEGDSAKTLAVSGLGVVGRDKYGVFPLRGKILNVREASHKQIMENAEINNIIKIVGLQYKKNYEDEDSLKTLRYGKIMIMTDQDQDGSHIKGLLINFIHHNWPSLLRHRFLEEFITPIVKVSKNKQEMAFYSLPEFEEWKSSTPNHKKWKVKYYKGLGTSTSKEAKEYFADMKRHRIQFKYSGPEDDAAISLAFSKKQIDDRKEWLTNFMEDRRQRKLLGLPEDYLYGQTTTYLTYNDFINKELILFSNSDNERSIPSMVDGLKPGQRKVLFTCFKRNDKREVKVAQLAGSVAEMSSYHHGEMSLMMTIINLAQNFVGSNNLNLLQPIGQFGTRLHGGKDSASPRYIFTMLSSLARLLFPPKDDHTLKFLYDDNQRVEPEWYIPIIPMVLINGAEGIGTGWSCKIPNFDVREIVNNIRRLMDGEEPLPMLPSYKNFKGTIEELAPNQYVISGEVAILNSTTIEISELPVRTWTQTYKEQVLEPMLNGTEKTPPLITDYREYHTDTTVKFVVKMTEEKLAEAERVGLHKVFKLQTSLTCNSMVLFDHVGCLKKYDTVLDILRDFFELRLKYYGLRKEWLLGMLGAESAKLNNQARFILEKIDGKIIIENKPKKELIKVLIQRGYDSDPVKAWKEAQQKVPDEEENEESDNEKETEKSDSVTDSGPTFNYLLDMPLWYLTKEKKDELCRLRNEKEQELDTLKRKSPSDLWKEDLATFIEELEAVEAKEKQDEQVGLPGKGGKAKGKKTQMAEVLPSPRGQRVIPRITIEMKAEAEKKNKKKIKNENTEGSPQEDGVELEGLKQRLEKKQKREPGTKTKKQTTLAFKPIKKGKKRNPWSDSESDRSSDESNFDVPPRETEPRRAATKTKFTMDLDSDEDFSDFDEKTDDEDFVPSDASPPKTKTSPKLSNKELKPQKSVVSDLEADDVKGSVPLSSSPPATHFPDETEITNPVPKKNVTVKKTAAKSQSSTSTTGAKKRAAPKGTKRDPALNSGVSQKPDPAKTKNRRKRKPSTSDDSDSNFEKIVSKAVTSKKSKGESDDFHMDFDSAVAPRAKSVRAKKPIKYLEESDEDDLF

Compound | EC50 (human topoisomerase II; [3]) [µM] | other results
Cc1cc(-c2c(F)cc3c(=NN)ccn(C4CC4)c3c2F)cc(C)n1 [Example 1] | 1.7 | In vivo antitumor activity, Panc03 ([1]; Panc03, sc tumor/iv drug): Inactive
Cc1cc(-c2c(F)cc3c(=NNc4ccccn4)ccn(C4CC4)c3c2F)cc(C)n1 [Example 2] | 0.98 | In vivo antitumor activity, P388 (P388 leukemia; P388, ip tumor/ip drug): Inactive; In vivo antitumor activity, P388 (P388 leukemia; P388, ip tumor/iv drug): Inactive; In vivo antitumor activity, MX-1 [2]: Inactive; % T/C (Tumor Growth Inhibition), Panc03 ([1]; Panc03, sc tumor/iv drug, T/C ≤42% considered significant): 37%
Cc1ccc(S(=O)(=O)N=c2ccn(C3CC3)c3c(F)c(-c4cc(C)nc(C)c4)c(F)cc23)cc1 [Example 3] |  | EC50 (human topoisomerase II; [4]): 45 µM
Cc1cc(-c2c(F)cc3c(=N)ccn(C4CC4)c3c2F)cc(C)n1 [Example 4] | 12 | 
CC(=O)NN=c1ccn(C2CC2)c2c(F)c(-c3cc(C)nc(C)c3)c(F)cc12 [Example 5] | 20 | 
Cc1cc(-c2c(F)cc3c(=NN4C(=O)c5ccccc5C4=O)ccn(C4CC4)c3c2F)cc(C)n1 [Example 6] | 16 | 
Cc1cc(-c2c(F)cc3c(c2F)N(C2CC2)C=CC3=C(C#N)C#N)cc(C)n1 [Example 7] |  | EC50 (human topoisomerase II; [4]): 6.3 µM
CCOC(=O)C(C#N)=C1C=CN(C2CC2)c2c1cc(F)c(-c1cc(C)nc(C)c1)c2F [Example 8a] |  | EC50 (human topoisomerase II; [4]): 4.8 µM
Cc1cc(-c2c(F)cc3c(c2F)N(C2CC2)C=CC3=CC#N)cc(C)n1 [Example 8b] | 4 | 
CNN=c1ccn(C2CC2)c2c(F)c(-c3cc(C)nc(C)c3)c(F)cc12 [Example 9] | 1.9 | 
Cc1cc(-c2c(F)cc3c(=NO)ccn(C4CC4)c3c2F)cc(C)n1 [Example 10] | 1.4 | In vivo antitumor activity, Panc03 ([1]; Panc03, sc tumor/iv drug): Inactive
Cc1cc(-c2c(F)cc3c(=NN(C)C)ccn(C4CC4)c3c2F)cc(C)n1 [Example 11] | 2.3 | 
Cc1cc(-c2c(F)cc3c(=NC4CC4)ccn(C4CC4)c3c2F)cc(C)n1 [Example 12] | 2.4 | In vivo antitumor activity, Panc03 ([1]; Panc03, sc tumor/iv drug): Inactive
Cc1cc(-c2c(F)cc3c(=NNC(N)=O)ccn(C4CC4)c3c2F)cc(C)n1 [Example 13] | 3.1 | In vivo antitumor activity, Panc03 ([1]; Panc03, sc tumor/iv drug): Inactive
Cc1cc(-c2c(F)cc3c(=NNc4c5ccccc5nc5ccccc45)ccn(C4CC4)c3c2F)cc(C)n1 [Example 14] | 28 | 
Cc1cc(-c2c(F)cc3c(=NNCCO)ccn(C4CC4)c3c2F)cc(C)n1 [Example 15] | 3.2 | 
Cc1cc(-c2c(F)cc3c(=NNc4cnc5ccccc5c4)ccn(C4CC4)c3c2F)cc(C)n1 [Example 16] | 92 | 
CON=c1ccn(C2CC2)c2c(F)c(-c3cc(C)nc(C)c3)c(F)cc12 [Example 17] |  | EC50 (human topoisomerase II; [4]): 2.6 µM
Cc1cc(-c2c(F)cc3c(=NSc4ccc(Cl)cc4)ccn(C4CC4)c3c2F)cc(C)n1 [Example 18] | 9.4 | 
Cc1cc(-c2c(F)cc3c(=NSc4ccccn4)ccn(C4CC4)c3c2F)cc(C)n1 [Example 19] | 3.8 | 
Cc1cc(-c2c(F)cc3c(=NCCN(C)C)ccn(C4CC4)c3c2F)cc(C)n1 [Example 20] | 14 | 
Cc1cc(-c2c(F)cc3c(=NCCCN(C)C)ccn(C4CC4)c3c2F)cc(C)n1 [Example 21] | 5.5 | 
Cc1cc(-c2c(F)cc3c(=Nc4ccccc4)ccn(C4CC4)c3c2F)cc(C)n1 [Example 22] | 1.9 | 
Cc1cc(-c2c(F)cc3c(=Nc4ccccn4)ccn(C4CC4)c3c2F)cc(C)n1 [Example 23] | 3.6 | 
Cc1cc(-c2c(F)cc3c(=Nc4ccccc4O)ccn(C4CC4)c3c2F)cc(C)n1 [Example 24] | 1.6 | 
Cc1cc(-c2c(F)cc3c(=Nc4ccc(N)cc4)ccn(C4CC4)c3c2F)cc(C)n1 [Example 25] | 7.6 | 
Cc1cc(-c2c(F)cc3c(=O)ccn(C4CC4)c3c2F)cc(C)n1 [Int A] | 17 | In vivo antitumor activity, Panc03 ([1]; Panc03, route not given): Inactive
Cc1cc(-c2c(F)cc3c(=S)ccn(C4CC4)c3c2F)cc(C)n1 [Int B] |  | EC50 (human topoisomerase II; footnote E: endpoint of assay extrapolated, read-out: Topo II EC50 (endpoint of assay extrapolated)): 76 µM
CSc1cc[n+](C2CC2)c2c(F)c(-c3cc(C)nc(C)c3)c(F)cc12 [Int C] | 24 | 
